Laboratory results reported in ChEMBL document CHEMBL5393450, “Compounds inhibiting tdg activity” (2022).

Molecular target: G/T mismatch-specific thymine DNA glycosylase (Homo sapiens) (UniProt Q13569)
Assay: Inhibition of TDG in human HEK293T at 10 uM by Renilla luciferase based reporter assay relative to control
Assay type: cell-based

Chain of G/T mismatch-specific thymine DNA glycosylase (Homo sapiens) (Q13569 whole entry): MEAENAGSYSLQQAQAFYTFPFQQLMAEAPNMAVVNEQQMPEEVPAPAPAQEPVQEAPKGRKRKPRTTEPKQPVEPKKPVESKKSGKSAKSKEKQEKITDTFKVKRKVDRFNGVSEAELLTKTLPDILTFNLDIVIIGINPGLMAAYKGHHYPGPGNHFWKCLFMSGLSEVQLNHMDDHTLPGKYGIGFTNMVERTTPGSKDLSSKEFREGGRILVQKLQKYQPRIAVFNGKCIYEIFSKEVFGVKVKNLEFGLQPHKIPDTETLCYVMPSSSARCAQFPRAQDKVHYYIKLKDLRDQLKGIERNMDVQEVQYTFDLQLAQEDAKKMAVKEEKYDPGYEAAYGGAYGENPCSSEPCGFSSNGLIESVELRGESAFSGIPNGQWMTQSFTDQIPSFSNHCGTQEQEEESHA

With `Cc1ccc(C2CCN(CCC(=O)c3ccc4c(c3)OCCO4)C2)cc1` (stereo unspecified) the inhibition was under 25%.
